# Data published in patent US12194140B2, “Compositions for topical treatment of microbial infections” (Hennepin Life Sciences, priority 2012, dated 2025).
# Key:
# Mycobacterium phlei = test: Spectrum of antibacterial activity of GML; type: cell-based; conditions: optimal growth conditions; 1 strain tested
# E. coli (Watson strain) [1] = test: GML and EDTA on the growth of E. coli; type: cell-based; conditions: 24 hours; EDTA 0.05 M to 0.00005 M; GML 100 μg/mL
# Procedure: E. coli (Watson strain) was adjusted to I.2×10^7/mL in Todd Hewitt media. […] Cultures were incubated with shaking (200 RPM) for 24 hours, at which time samples were removed for plate counting. To further assess the combined effects of GML and EDTA, the experiment was carried out as above, and the relative effects on the growth of E. coli of EDTA alone or the combination of GML and EDTA were assessed in direct comparison to GML alone.
# Candida albicans = test: GML in vegetable oil, growth in Todd Hewitt broth (CFU/mL); type: cell-based; conditions: GML in olive, palm or corn oil (all 3); 18 hours, 37° C.
# Group C Streptococcus = test: Spectrum of antibacterial activity of GML; type: cell-based; conditions: optimal growth conditions; 1 strain tested
# [2] = tested on: Streptococcus pneumoniae Serotype III; test: Spectrum of antibacterial activity of GML; type: cell-based; conditions: optimal growth conditions; 2 strains tested
# Proteus vulgaris = test: Spectrum of antibacterial activity of GML; type: cell-based; conditions: optimal growth conditions; 1 strain tested
# Mycobacterial species = type: cell-based
# Group G Streptococcus = test: Spectrum of antibacterial activity of GML; type: cell-based; conditions: optimal growth conditions; 1 strain tested
# Pasteurella multocida = test: Spectrum of antibacterial activity of GML; type: cell-based; conditions: optimal growth conditions; 1 strain tested
# S. aureus 128 (TSST-1) = type: cell-based
# Burkholderia cenocepacia = test: Spectrum of antibacterial activity of GML; type: cell-based; conditions: optimal growth conditions; 1 strain tested
# Klebsiella pneunoniae = test: Spectrum of antibacterial activity of GML; type: cell-based; conditions: optimal growth conditions; 1 strain tested
# [3] = tested on: P. aeruginosa (strain PAO 1); test: Effect of pH on GML activity; type: cell-based, Pseudomonas aeruginosa; conditions: GML 10 μg/mL to 5000 μg/mL, 24 hours
# Procedure: The effect of GML at a range of concentrations and in the presence of a range of pH levels on the growth of Pseudomonas aeruginosa was also determined. P. aeruginosa (strain PAO 1) was inoculated in Todd Hewitt broth at 5.7×10^6/mL. GML was added to cultures at a range of concentrations from 10 μg/mL to 5000 μg/mL, and the pH was adjusted to 5.0, 6.0, or 7.0. CFU/mL was determined after 24 hours of incubation. […] A pH of 5.0 in the absence of GML was somewhat inhibitory for the growth of P. aeruginosa.
# Enterococcus faecalis = test: Spectrum of antibacterial activity of GML; type: cell-based; conditions: optimal growth conditions; 1 strain tested
# Bacillus cereus = test: Spectrum of antibacterial activity of GML; type: cell-based; conditions: optimal growth conditions; 1 strain tested
# Gardnerella vaginalis = test: GML in vegetable oil, growth in Todd Hewitt broth (CFU/mL); type: cell-based; conditions: GML in olive, 18 hours, 37° C.
# S. aureus MN8 [4] = test: Antibacterial activity of GML after pre-treatment with sterile culture fluid; type: cell-based; conditions: 24 hour assay
# Streptococcus sanguinis = test: Spectrum of antibacterial activity of GML; type: cell-based; conditions: optimal growth conditions; 1 strain tested
# [5] = tested on: Bordetella bronchiseptica; test: Spectrum of antibacterial activity of GML; type: cell-based; conditions: optimal growth conditions; 1 strain tested
# Streptococcus agalactiae = test: Spectrum of antibacterial activity of GML; type: cell-based; conditions: optimal growth conditions; 3 strains tested
# Salmonella minnesota = test: Spectrum of antibacterial activity of GML; type: cell-based; conditions: optimal growth conditions; 1 strain tested
# Fusobacterium species = test: Spectrum of antibacterial activity of GML; type: cell-based; conditions: optimal growth conditions; 1 strain tested
# Neisseria gonorrhoeae = test: Spectrum of antibacterial activity of GML; type: cell-based; conditions: optimal growth conditions; 1 strain tested
# [6] = tested on: Mycobacterium tuberculosis; type: cell-based
# [7] = tested on: S. aureus strains MN8, MNWH, MW2; test: Biofilm formation in 96 well microtiter plates; type: cell-based
# Group F Streptococcus = test: Spectrum of antibacterial activity of GML; type: cell-based; conditions: optimal growth conditions; 1 strain tested
# S. aureus MN8 [8] = test: Bactericidal activity of GML versus lauric acid; type: cell-based; conditions: 24 hours, 37° C.; bactericidal = at least 3 log reduction
# Clostridium perfringens = type: cell-based; conditions: optimal growth conditions; 1 strain tested
# Campylobacter jejuni = test: Spectrum of antibacterial activity of GML; type: cell-based; conditions: optimal growth conditions; 1 strain tested
# [9] = tested on: non-typable Haemophilus influenzae; type: cell-based
# E. coli (Watson strain) [10] = test: Effect of pH on GML activity; type: cell-based; conditions: for bactericidal GML concentration: 24 hours
# Procedure: An experiment was conducted to determine the effect of GML in the presence of various pH levels on the growth of E. coli. E. coli (Watson strain) was grown in Todd Hewitt media and adjusted to […]. Using acetate buffer, the pH of the cultures was adjusted to 5.0, 6.0, or 7.0. […] Samples were removed for enumeration of CFU/mL at 24 hours.
# Staphylococcus aureus = test: Spectrum of antibacterial activity of GML; type: cell-based; conditions: optimal growth conditions; 54 strains tested
# Enterobacter aerogenes = test: Spectrum of antibacterial activity of GML; type: cell-based; conditions: optimal growth conditions; 1 strain tested
substance,measurement,setting,value
Glycerol monolaurate [GML],Average Bactericidal Concentration of GML,Mycobacterium phlei,100 µg/mL
same,anti-bacterial activity on growth of E. coli (CFU/mL),E. coli (Watson strain) [1],did not exhibit any bactericidal activity
same,GML concentration at which growth was inhibited,Candida albicans,100 µg/mL
same,Average Bactericidal Concentration of GML,Group C Streptococcus,30 µg/mL
same,Average Bactericidal Concentration of GML,[2],10 µg/mL
same,Average Bactericidal Concentration of GML,Proteus vulgaris,Not Susceptible
same,GML concentration at which organisms were killed,Mycobacterial species,≥ 50 µg/mL
same,Average Bactericidal Concentration of GML,Group G Streptococcus,50 µg/mL
same,Average Bactericidal Concentration of GML,Pasteurella multocida,500 µg/mL
same,TSST-1 in tampon sacs (Western immunoblot),S. aureus 128 (TSST-1),not detected
same,Average Bactericidal Concentration of GML,Burkholderia cenocepacia,500 µg/mL
same,Average Bactericidal Concentration of GML,Klebsiella pneunoniae,Not Susceptible
same,effect on growth (CFU/mL),[3]; pH 5.0,further inhibited P. aeruginosa growth in a dose-dependent manner
same,effect on growth (CFU/mL),[3]; pH 6.0 or 7.0,no concentration of GML was inhibitory
same,Average Bactericidal Concentration of GML,Enterococcus faecalis,100 µg/mL
same,Average Bactericidal Concentration of GML,Bacillus cereus,50 µg/mL
same,GML concentration at which growth was completely or nearly completely inhibited,Gardnerella vaginalis; palm or corn oil (all 3),≥ 20 µg/mL
same,GML concentration at which CFU/mL were reduced,Gardnerella vaginalis; palm or corn oil (all three),≤ 10 µg/mL
same,antibacterial activity of GML after pre-incubation,S. aureus MN8 [4]; pre-incubated overnight with sterile culture fluid from S. aureus MN8,eliminated the antibacterial activity
same,antibacterial activity of GML after pre-incubation,S. aureus MN8 [4]; pre-incubated overnight with sterile culture fluid from S. pyogenes,did not affect
same,Average Bactericidal Concentration of GML,Streptococcus sanguinis,50 µg/mL
same,Average Bactericidal Concentration of GML,[5],1 µg/mL
same,Average Bactericidal Concentration of GML,Streptococcus agalactiae,30 µg/mL
same,Average Bactericidal Concentration of GML,Salmonella minnesota,Not Susceptible
same,Average Bactericidal Concentration of GML,Fusobacterium species,50 µg/mL
same,Average Bactericidal Concentration of GML,Neisseria gonorrhoeae,20 µg/mL
same,Average Bactericidal Concentration of GML,[6],100 µg/mL
same,"fold lower GML concentration inhibiting biofilm formation (crystal violet, absorbance 595 nm) than necessary to inhibit bacterial growth",[7]; 24 or 48 hours,10 fold
same,GML concentration at which growth was completely inhibited (CFU/mL),"[7]; all three strains, 24 and 48 hours",500 µg/mL
same,Average Bactericidal Concentration of GML,Group F Streptococcus,20 µg/mL
same,fold lower bactericidal concentration than lauric acid,S. aureus MN8 [8],200 fold
same,Average Bactericidal Concentration of GML,Clostridium perfringens,1 µg/mL
same,Average Bactericidal Concentration of GML,Campylobacter jejuni,1 µg/mL
same,"GML concentration inhibiting biofilm formation (crystal violet, absorbance 595 nm)",[9],≤ 1.0 µg/mL
same,bactericidal GML concentration in the context of a biofilm (CFU/mL),[9],50 µg/mL
same,bactericidal GML concentration,E. coli (Watson strain) [10]; pH 5.0,0.1 µg/mL
same,bactericidal GML concentration,E. coli (Watson strain) [10]; pH 6.0,50 µg/mL
same,bactericidal GML concentration,E. coli (Watson strain) [10]; pH 7.0,> 5000 µg/mL
same,increase in susceptibility to GML with each unit drop in pH,E. coli (Watson strain) [10]; pH 7.0 to 5.0,500 times
same,Average Bactericidal Concentration of GML,Staphylococcus aureus,300 µg/mL
same,Average Bactericidal Concentration of GML,Enterobacter aerogenes,Not Susceptible
